Values quoted from earlier work in patent US5461046A, “1-,2-,3-,4-,5-,6-,7-,8-, and/or 9-substituted dibenzoxazepine compounds, pharmaceutical compositions and methods for treating pain” (G. D. Searle & Co., priority 1993, dated 1995).

Experiments:
[1] = test system: stimulant actions of prostaglandins on isolated smooth muscle preparations; conditions: cited from earlier work
[2] = test system: micturition reflex in rats; conditions: urethane-anesthetized rats; cited from earlier work

Q: Which results are given for `CC(=O)NNC(=O)N1Cc2ccccc2Oc2ccc(Cl)cc21` [SC-19220]?
A: inhibition of stimulant actions of prostaglandins [1]: inhibit the stimulant actions of prostaglandins on isolated smooth muscle preparations; bladder capacity [2]: increased; voiding efficiency of micturition [2]: reduced
